Measured values published in the supplement of paper PMC10307832.

Experiments:
Assay in all cases: relative viability (nuclei count vs DMSO), 5 days (fraction); higher = more cells survive
IU1-47 + Pemetrexed = compound: CC1=CC(=C(N1C2=CC=C(C=C2)Cl)C)C(=O)CN3CCCCC3 [IU1-47] + Nc1nc2[nH]cc(CCc3ccc(C(=O)N[C@@H](CCC(=O)O)C(=O)O)cc3)c2c(=O)[nH]1 [Pemetrexed] (partner 0.2 µM)
Procedure, shortened: (§1)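 Each reported value is a median over duplicate plates. It expresses relative viability: treated-well nuclei count divided by vehicle-well nuclei count. Lung cancer cell lines in 1536-well plates were dosed by pin tool a day after seeding, alone with one drug or with a fixed anchor-drug dose plus five library-drug doses (not always all listed) in √10 steps, and nuclei were counted after 5 days.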

FG-4592 + OSI-027 = compound: Cc1nc(C(=O)NCC(=O)O)c(O)c2ccc(Oc3ccccc3)cc12 [FG-4592] + COc1cccc2cc(-c3nc([C@H]4CC[C@H](C(=O)O)CC4)n4ncnc(N)c34)[nH]c12 [OSI-027] (partner 0.5 µM)
Procedure, shortened: as §1

IU1-47 + Luminespib = compound: CC1=CC(=C(N1C2=CC=C(C=C2)Cl)C)C(=O)CN3CCCCC3 [IU1-47] + CCNC(=O)c1noc(-c2cc(C(C)C)c(O)cc2O)c1-c1ccc(CN2CCOCC2)cc1 [Luminespib] (partner 0.01 µM)
Procedure, shortened: as §1

IU1-47 + Crizotinib = compound: CC1=CC(=C(N1C2=CC=C(C=C2)Cl)C)C(=O)CN3CCCCC3 [IU1-47] + C[C@@H](Oc1cc(-c2cnn(C3CCNCC3)c2)cnc1N)c1c(Cl)ccc(F)c1Cl [Crizotinib] (partner 1 µM)
Procedure, shortened: as §1

Row | Cell Line | relative viability (IU1-47 + Pemetrexed; first compound 0.08 µM) | relative viability (IU1-47 + Pemetrexed; first compound 0.253 µM) | relative viability (IU1-47 + Pemetrexed; first compound 0.8 µM) | relative viability (IU1-47 + Pemetrexed; first compound 2.53 µM) | relative viability (IU1-47 + Pemetrexed; first compound 8 µM) | relative viability (FG-4592 + OSI-027; first compound 0.08 µM) | relative viability (FG-4592 + OSI-027; first compound 0.253 µM) | relative viability (FG-4592 + OSI-027; first compound 0.8 µM) | relative viability (FG-4592 + OSI-027; first compound 2.53 µM) | relative viability (FG-4592 + OSI-027; first compound 8 µM) | relative viability (IU1-47 + Luminespib; first compound 0.08 µM) | relative viability (IU1-47 + Luminespib; first compound 0.253 µM) | relative viability (IU1-47 + Luminespib; first compound 0.8 µM) | relative viability (IU1-47 + Luminespib; first compound 2.53 µM) | relative viability (IU1-47 + Luminespib; first compound 8 µM) | relative viability (IU1-47 + Crizotinib; first compound 0.08 µM) | relative viability (IU1-47 + Crizotinib; first compound 0.253 µM) | relative viability (IU1-47 + Crizotinib; first compound 0.8 µM) | relative viability (IU1-47 + Crizotinib; first compound 2.53 µM) | relative viability (IU1-47 + Crizotinib; first compound 8 µM)
1 | NCI-H322M | 0.662 | 0.648 | 0.829 | 0.582 | 0.607 | 0.507 | 0.543 | 0.557 | 0.488 | 0.469 | 1.03 | 0.929 | 0.922 | 0.879 | 0.715 | 1.02 | 0.923 | 0.888 | 1.07 | 0.954
2 | NCI-H358 | 0.156 | 0.169 | 0.172 | 0.184 | 0.165 | 0.695 | 0.664 | 0.83 | 0.702 | 0.572 | 0.366 | 0.328 | 0.347 | 0.3 | 0.349 | 0.532 | 0.607 | 0.516 |  | 0.495
3 | NCI-H441 | 0.255 | 0.273 | 0.278 | 0.306 | 0.265 | 0.589 | 0.537 | 0.621 | 0.465 | 0.563 | 0.328 | 0.336 | 0.478 | 0.379 | 0.343 | 0.778 | 0.887 | 0.813 | 0.889 | 0.775
4 | NCI-H460 | 0.0569 | 0.0572 | 0.0551 | 0.0515 | 0.0695 | 0.757 | 0.641 | 0.721 | 0.554 | 0.614 | 0.0244 | 0.0322 | 0.0367 | 0.0341 | 0.0295 | 0.955 | 1.1 | 1.05 | 0.861 | 1.46
5 | NCI-H520 | 0.548 | 0.711 | 0.831 | 0.847 | 0.577 | 0.234 | 0.285 | 0.286 | 0.257 | 0.205 | 0.259 | 0.238 | 0.248 | 0.285 | 0.248 | 0.815 | 0.984 | 0.627 | 0.8 | 0.499
6 | NCI-H596 | 0.491 |  | 0.494 | 0.508 | 0.446 | 0.595 | 0.634 | 0.513 | 0.431 | 0.434 | 0.926 | 1.05 | 1 | 1.12 | 0.752 | 1.01 | 1.07 | 1.04 | 0.95 | 0.943
7 | NCI-H647 | 0.155 | 0.189 | 0.182 | 0.166 | 0.159 | 0.547 | 0.675 | 0.686 | 0.565 | 0.602 | 0.409 | 0.276 | 0.125 | 0.221 | 0.176 | 1.01 | 1.22 | 0.99 | 1.07 | 0.561
8 | NCI-H650 | 1.01 | 1.1 | 0.965 | 0.878 | 1 | 0.492 | 0.457 | 0.433 | 0.45 | 0.407 | 0.849 | 0.81 | 0.831 | 0.671 | 0.828 | 0.685 | 0.788 | 0.695 | 0.71 | 0.648
9 | NCI-H661 | 0.925 | 0.961 | 0.977 | 0.925 | 0.947 | 0.712 | 0.688 | 0.688 | 0.763 | 0.668 | 0.901 | 0.936 | 1.01 | 0.924 | 0.877 | 1.21 | 0.975 | 0.981 | 1.06 | 1.12
10 | NCI-H838 | 0.241 | 0.233 | 0.259 | 0.274 | 0.246 | 0.372 | 0.31 | 0.389 | 0.289 | 0.357 | 0.31 | 0.347 | 0.262 | 0.243 | 0.282 | 0.858 | 0.895 | 0.844 | 1.03 | 0.669
11 | NCI-H1355 | 1.06 | 1.08 | 1.12 |  | 1.07 | 0.376 | 0.372 | 0.353 | 0.301 | 0.35 | 0.773 | 0.721 | 0.735 |  | 0.64 | 1.17 | 1.09 | 1.14 | 1 | 1.14
12 | NCI-H1437 | 0.336 | 0.336 | 0.314 | 0.308 | 0.311 | 0.907 | 0.812 | 0.862 | 0.667 | 0.506 | 1.2 | 1.1 | 1.21 | 1.11 | 1.1 | 0.909 | 0.952 | 0.81 | 0.926 | 0.795
13 | NCI-H1563 | 0.892 | 0.829 | 0.871 | 0.703 | 0.716 | 0.78 | 0.785 | 0.718 | 0.701 | 0.606 | 0.468 | 0.52 | 0.538 | 0.506 | 0.497 | 0.877 | 0.791 | 0.882 | 0.86 | 0.802
14 | NCI-H1650 | 0.419 | 0.338 | 0.335 | 0.36 | 0.294 | 0.523 | 0.603 | 0.839 | 0.621 | 0.634 | 0.169 | 0.201 | 0.18 | 0.175 | 0.221 | 0.978 | 0.969 | 0.802 | 1.16 | 0.857
15 | NCI-H1651 | 0.587 | 0.559 | 0.616 | 0.311 | 0.451 | 0.741 | 0.639 | 0.719 | 0.645 | 0.605 | 0.876 | 0.85 | 0.924 | 0.974 | 0.819 | 0.887 | 0.873 | 0.889 | 0.804 | 0.863
16 | NCI-H1666 | 0.894 | 0.839 | 0.888 | 0.873 | 0.841 | 0.809 | 0.803 | 0.837 | 0.775 | 0.621 | 1.08 | 1.02 | 0.938 | 0.942 | 0.854 | 0.948 | 0.914 | 0.927 | 0.991 | 1.08
17 | NCI-H1734 | 0.454 | 0.415 | 0.446 | 0.443 | 0.463 | 0.565 | 0.621 | 0.541 | 0.529 | 0.445 | 0.181 | 0.202 | 0.18 |  | 0.215 | 0.658 | 0.688 | 0.646 |  | 0.647
18 | NCI-H1755 | 0.434 | 0.439 | 0.825 | 0.454 | 0.445 | 0.661 | 0.649 | 0.727 | 0.737 | 0.693 | 0.273 | 0.465 | 0.325 | 0.479 | 0.451 | 0.883 | 0.927 | 0.899 | 0.895 | 0.756
19 | NCI-H1792 | 0.529 | 0.817 | 0.789 | 0.877 | 0.35 | 0.803 | 0.69 | 0.794 | 0.575 | 0.735 | 0.573 | 0.358 | 0.515 | 0.308 | 0.568 | 0.993 | 1.03 | 1.07 | 1.02 | 0.522
20 | NCI-H1915 | 0.586 | 0.515 | 0.46 | 0.562 | 0.553 | 0.521 | 0.59 | 0.683 | 0.579 | 0.578 | 0.816 | 0.804 | 0.848 |  | 0.728 | 0.973 | 0.892 | 0.915 |  | 0.907
21 | NCI-H1944 | 0.652 | 0.778 | 0.751 | 0.734 | 0.58 | 0.401 | 0.367 | 0.412 | 0.325 | 0.364 | 0.989 | 0.764 | 0.832 | 0.729 | 0.778 | 1.15 | 1.21 | 1.08 |  | 1.09
22 | NCI-H1975 | 0.278 | 0.289 | 0.297 | 0.299 | 0.255 | 0.693 | 0.605 | 0.75 | 0.652 | 0.614 | 0.142 | 0.198 | 0.199 | 0.228 | 0.37 | 1.04 | 1.01 | 1 | 1.01 | 0.845
23 | NCI-H1993 | 0.631 | 0.588 | 0.672 | 0.346 | 0.482 | 0.508 | 0.504 | 0.546 | 0.512 | 0.559 | 0.857 | 0.888 | 0.804 | 0.868 | 0.716 | 0.928 | 0.84 | 0.965 | 0.85 | 0.864
24 | NCI-H2009 | 1.1 | 1.05 | 1.01 | 1.08 | 1.05 | 0.591 | 0.565 | 0.621 | 0.476 | 0.605 | 1.09 | 1.04 | 0.986 | 1.01 | 1.05 | 1 | 1.1 | 0.933 | 1.1 | 1.05
25 | NCI-H2023 | 0.22 | 0.232 | 0.246 | 0.208 | 0.204 | 0.402 | 0.359 | 0.428 | 0.356 | 0.241 | 0.777 | 0.902 | 0.913 | 0.885 | 0.768 | 0.663 | 0.67 | 0.645 | 0.78 | 0.581
26 | NCI-H2085 | 0.925 | 0.818 | 0.846 | 0.83 | 0.885 | 0.788 | 0.735 | 0.648 | 0.519 | 0.652 | 0.446 | 0.5 | 0.522 | 0.446 | 0.318 | 0.911 | 0.847 | 0.851 | 0.869 | 0.739
27 | NCI-H2087 | 0.668 | 0.637 | 0.693 | 0.716 | 0.556 | 0.559 | 0.538 | 0.669 | 0.473 | 0.486 | 0.194 | 0.166 | 0.18 |  | 0.163 | 1.01 | 0.83 | 0.947 | 1.04 | 0.806
